Here are results for 22 molecules from patent US8236789B2, “1-adamantyl azetidin-2-one derivatives and drugs containing same” (Kowa Company, Ltd., priority 2008, dated 2012).

Format in all cases: biochemical
The target in experiment [1] is T1, human 11β-HSD1 (Homo sapiens, UniProt P28845).
T1 construct: expressed in transfected cells
The experiment is described as follows: Enzyme inhibitory activity assay, lysate of HEK293 cells stably expressing human 11β-HSD1, cortisol by competitive ELISA. Particulars: Table 1; cell lysate, 100 nmol/L cortisone, NADPH, 37° C. 1 hour; read-out: in vitro assay (IC50 uM) h HSD1. The method, then: (§1) 1. Human 11β-HSD1-, Human 11β-HSD2- and Mouse 11β-HSD1-Gene Clonings and Establishment of Stably Expressing Cells
(§2) Human 11β-HSD1- and human 11β-HSD2-expressing vectors were transfected into human kidney-derived cell line, HEK293 cells, using a transfection reagent, jet PEI (Funakoshi). Mouse 11β-HSD1 was transfected to Chinese hamster ovary-derived cell line, CHO-K1 cells. Selection was conducted with 200-400 μg/mL of zeocine (Invitrogen) to provide stably expressing-cell clones. The stably expressing cells were suspended in buffer solution A (20 mmol/L Tris-HCl, pH 7.4, 250 mmol/L sucrose, 1 mmol/L EGTA, 1 mmol/L EDTA, 1 mmol/L MgCl2), sonicated, and then stored at −80° C.
(§3) 2. Assay of Enzyme Inhibitory Activity
(§4) An enzymatic reaction was conducted using a polystyrene 96-well plate. Each well was added with 1 μL of a test agent dissolved in DMSO and then diluted (0.003 to 3 mmol/L), and further added with 10 μL of cell lysate diluted to a concentration of 0.1 mg/mL to 0.4 mg/mL. Next, 90 μL of buffer solution A containing substrate (100 nmol/L cortisone or cortisol) and coenzyme (400 μmol/L NADPH or NAD+) was added and the mixture was incubated at 37° C. for 1 hour. The enzymatic reaction was stopped by treating at 95° C. for 3 minutes. Cortisol that was present in the reaction solution was determined by a competitive ELISA shown below.
(§5) Anti-rabbit IgG antibody (Chemi-con) diluted to 2 μg/mL with carbonate buffer solution (pH 9.6) was added in 100 μL each to a 96-well immuno plate (Nunc) and immobilized by an incubation at 4° C. overnight. […] After washed three times with buffer solution B containing 0.05% Tween 20, the plates were allowed to develop color by adding 100 μL, of color reagent, TMB (Moss). The color reaction was stopped by 25 μL of 1 mol/L sulfuric acid and the absorbance was determined at 450 nm with a microplate reader (Molecular Device, VersaMax).
In general terms: An ELISA detects its analyte on a solid surface through an enzyme-linked reagent.

Experiment [2] concerns the target T2, mouse 11β-HSD1 (Mus musculus, UniProt P50172).
T2 construct: expressed in transfected cells
The experiment is described as follows: Enzyme inhibitory activity assay, lysate of CHO-K1 cells stably expressing mouse 11β-HSD1, cortisol by competitive ELISA. Particulars: Table 2; cell lysate, 100 nmol/L cortisone, NADPH, 37° C. 1 hour; read-out: in vitro assay (IC50 uM) m HSD1. The method, then:
as §1, §2, §3, §4, §5

The target in experiment [3] is T3, human 11β-HSD2 (Homo sapiens, UniProt P80365).
T3 construct: expressed in transfected cells
T3 sequence (P80365 1-405): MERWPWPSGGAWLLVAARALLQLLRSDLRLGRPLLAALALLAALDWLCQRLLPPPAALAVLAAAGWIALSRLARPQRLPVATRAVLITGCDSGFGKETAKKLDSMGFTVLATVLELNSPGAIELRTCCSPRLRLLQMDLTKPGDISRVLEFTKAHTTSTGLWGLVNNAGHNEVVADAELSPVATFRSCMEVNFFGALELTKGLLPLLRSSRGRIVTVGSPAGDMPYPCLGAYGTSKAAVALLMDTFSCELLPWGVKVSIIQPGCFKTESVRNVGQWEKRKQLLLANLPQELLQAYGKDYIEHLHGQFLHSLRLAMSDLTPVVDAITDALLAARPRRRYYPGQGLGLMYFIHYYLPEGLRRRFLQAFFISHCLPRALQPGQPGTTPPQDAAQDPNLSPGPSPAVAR
The experiment can be described thus: Enzyme inhibitory activity assay, lysate of HEK293 cells stably expressing human 11β-HSD2, cortisol by competitive ELISA. To be noted: Table 1; cell lysate, 100 nmol/L cortisol, NAD+, 37° C. 1 hour; read-out: in vitro assay (IC50 uM) h HSD2. The method, then: as §1
Human 11β-HSD1-, human 11β-HSD2-, and mouse 11β-HSD1-gene clonings were conducted using as a template a reverse transcription product of human-liver RNA, human-kidney RNA (CELL APPLICATIONS), and mouse-kidney RNA respectively, by means of PCR cloning with reference to nucleotide sequences of Genbank Accession Nos. NM_005525, NM_000196, and NM_008288. The obtained PCR products of about 0.9 kbp, 1.2 kbp, and 0.9 kbp were subcloned into an expression vector pcDNA3.1+/Zeo (Invitrogen).
as §2, §3, §4
Anti-rabbit IgG antibody (Chemi-con) diluted to 2 μg/mL with carbonate buffer solution (pH 9.6) was added in 100 μL each to a 96-well immuno plate (Nunc) and immobilized by an incubation at 4° C. overnight. 50 μL of enzymatic reaction solution was put onto the plates, and further, anti-cortisol antibody (Cosmo Bio) and HRP-labeled cortisol (Cosmo Bio), diluted with buffer solution B (25 mmol/L Tris-HCl pH 7.4, 137 mmol/L NaCl, 2.68 mmol/L KCl), were added in 50 μL respectively and incubated at 4° C. overnight. After washed three times with buffer solution B containing 0.05% Tween 20, the plates were allowed to develop color by adding 100 μL, of color reagent, TMB (Moss). The color reaction was stopped by 25 μL of 1 mol/L sulfuric acid and the absorbance was determined at 450 nm with a microplate reader (Molecular Device, VersaMax).
The values of human 11β-HSD1, human 11β-HSD2, and mouse 11β-HSD1 activities were subtracted from 100, and the resultant values were regarded as the respective 11βHSD inhibition rates of example compounds. […] The comparison of human 11β-HSD1 and human 11β-HSD2 inhibiting activities is shown in Table 1, and the comparison of human 11β-HSD1 and mouse 11β-HSD1 inhibiting activities is shown in Table 2.

Each structure is given as a SMILES string. A value given as a limit tells only on which side of the number the result lay.

T1 sequence (P28845 whole entry): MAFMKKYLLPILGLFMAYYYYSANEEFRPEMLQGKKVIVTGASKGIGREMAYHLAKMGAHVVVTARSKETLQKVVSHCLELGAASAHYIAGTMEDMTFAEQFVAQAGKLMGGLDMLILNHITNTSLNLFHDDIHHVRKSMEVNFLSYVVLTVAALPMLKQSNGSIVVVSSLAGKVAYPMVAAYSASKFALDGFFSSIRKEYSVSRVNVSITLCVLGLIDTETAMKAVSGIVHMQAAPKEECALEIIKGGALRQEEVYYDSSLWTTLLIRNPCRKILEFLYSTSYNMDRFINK
T2 sequence (P50172 whole entry): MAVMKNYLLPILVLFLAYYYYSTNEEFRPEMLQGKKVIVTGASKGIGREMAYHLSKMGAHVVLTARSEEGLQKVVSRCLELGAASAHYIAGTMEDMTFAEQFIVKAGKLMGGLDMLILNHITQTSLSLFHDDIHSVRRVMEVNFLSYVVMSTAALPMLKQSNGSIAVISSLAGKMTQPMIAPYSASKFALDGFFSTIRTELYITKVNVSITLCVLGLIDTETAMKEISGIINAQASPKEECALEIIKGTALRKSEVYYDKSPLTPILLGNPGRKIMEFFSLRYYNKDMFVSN

Regarding `CC1(C)C(=O)N(C2C3CC4CC(C3)CC2C4)C1c1ccccc1` (stereo not drawn) [Example 1, 1-(adamantan-2-yl)-3,3-dimethyl-4-phenylazetidin-2-one], the IC50 was 0.013 µM in experiment [1], 0.077 µM in experiment [2] and 3 to 30 µM in experiment [3].
As to `CC1(C)C(=O)N(C2C3CC4CC(C3)CC2C4)C1c1ccc(Cl)cc1` (stereo not drawn) [Example 22, 1-(adamantan-2-yl)-3,3-dimethyl-4-(4-chlorophenyl)azetidin-2-one], the IC50 in experiment [1] was 0.0095 µM; in experiment [2] it was 0.66 µM; in experiment [3], 15 µM.
For `COc1ccc(C2N(C3C4CC5CC(C4)CC3C5)C(=O)C2(C)C)cc1` (stereo not drawn) [Example 23, 1-(adamantan-2-yl)-3,3-dimethyl-4-(4-methoxyphenyl)azetidin-2-one], the IC50 in experiment [1] is 0.01 µM; in experiment [3], more than 30 µM.
`CC1(C)C(=O)N(C2C3CC4CC(C3)CC2C4)C1c1cccc(F)c1F` (stereo not drawn) [Example 24, 1-(adamantan-2-yl)-3,3-dimethyl-4-(2,3-difluorophenyl)azetidin-2-one]: the IC50 in experiment [1] was 0.011 µM; in experiment [2], 0.1 µM; in experiment [3], more than 30 µM.
In the same order, the values of `CC1(C)C(=O)N(C2C3CC4CC(C3)CC2C4)C1c1ccc(Cl)c(Cl)c1` (stereo not drawn) [Example 26, 1-(adamantan-2-yl)-3,3-dimethyl-4-(3,4-dichlorophenyl)azetidin-2-one] are 0.013 µM, 0.46 µM and more than 30 µM.
In the case of `CC1(C)C(=O)N(C2C3CC4CC(C3)CC2C4)C1c1ccc(F)c(F)c1` (stereo not drawn) [Example 27, 1-(adamantan-2-yl)-3,3-dimethyl-4-(3,4-difluorophenyl)azetidin-2-one], the IC50 was 0.017 µM in experiment [1] and 8.8 µM in experiment [3].
Take `CC1(C)C(=O)N(C2C3CC4CC(C3)CC2C4)C1c1ccc(F)c(Cl)c1` (stereo not drawn) [Example 29, 1-(adamantan-2-yl)-3,3-dimethyl-4-(3-chloro-4-fluorophenyl)azetidin-2-one]: the IC50 was 0.011 µM in experiment [1], 0.59 µM in experiment [2] and more than 30 µM in experiment [3].
Consider `CC1(C)C(=O)N(C2C3CC4CC(C3)CC2C4)C1c1cc(Cl)cc(Cl)c1` (stereo not drawn) [Example 31, 1-(adamantan-2-yl)-3,3-dimethyl-4-(3,5-dichlorophenyl)azetidin-2-one], for which the values for the IC50 in experiment [1] and in experiment [2] were 0.015 µM and 0.076 µM, respectively.
Consider `COc1ccccc1C1N(C2C3CC4CC(C3)CC2C4)C(=O)C1(C)C` (stereo not drawn) [Example 33, 1-(adamantan-2-yl)-3,3-dimethyl-4-(2-methoxyphenyl)azetidin-2-one], for which the IC50 in experiment [1] came to 0.0067 µM; in experiment [2], 0.072 µM; in experiment [3] it was 6.7 µM.
Consider `COc1cccc(C2N(C3C4CC5CC(C4)CC3C5)C(=O)C2(C)C)c1` (stereo not drawn) [Example 34, 1-(adamantan-2-yl)-3,3-dimethyl-4-(3-methoxyphenyl)azetidin-2-one], for which the IC50 in experiment [1] was found to be 0.012 µM; in experiment [2], 0.031 µM.
Regarding `CC1(C)C(=O)N(C2C3CC4CC(C3)CC2C4)C1c1cc(F)cc(F)c1F` (stereo not drawn) [Example 35, 1-(adamantan-2-yl)-3,3-dimethyl-4-(2,3,5-trifluorophenyl)azetidin-2-one], the half-inhibitory concentration (IC50) in experiment [1] was 0.053 µM; in experiment [2], 0.61 µM; in experiment [3], more than 30 µM.
Consider `CC(C)c1ccc(C2N(C3C4CC5CC(C4)CC3C5)C(=O)C2(C)C)cc1` (stereo not drawn) [Example 37, 1-(adamantan-2-yl)-3,3-dimethyl-4-(4-isopropylphenyl)azetidin-2-one], for which the IC50 in experiment [1] came out at 0.026 µM; in experiment [3] it was 14 µM.
Turning to `CC(C)(C)c1ccc(C2N(C3C4CC5CC(C4)CC3C5)C(=O)C2(C)C)cc1` (stereo not drawn) [Example 38, 1-(adamantan-2-yl)-3,3-dimethyl-4-(4-t-butylphenyl)azetidin-2-one], the IC50 was 0.079 µM in experiment [1] and 3 to 30 µM in experiment [3].
As to `CC1(C)C(=O)N(C2C3CC4CC(C3)CC2C4)C1c1ccc(OC(F)(F)F)cc1` (stereo not drawn) [Example 42, 1-(adamantan-2-yl)-3,3-dimethyl-4-(4-trifluoromethoxyphenyl)azetidin-2-one], the IC50 in experiment [1] came out at 0.006 µM; in experiment [2], 0.69 µM.
Turning to `CC1(C)C(=O)N(C2C3CC4CC(C3)CC2C4)C1c1cccc2ccccc12` (stereo not drawn) [Example 45, 1-(adamantan-2-yl)-3,3-dimethyl-4-(naphthalen-1-yl)azetidin-2-one], the figures for the IC50 in experiment [1] and in experiment [2] were 0.0081 µM and 0.0035 µM, respectively.
`CC1(C)C(=O)N([C@H]2C3CC4CC2C[C@](O)(C4)C3)C1c1cccc(Cl)c1Cl` (stereo partly drawn) [Example 46, trans-1-(5-hydroxyadamantan-2-yl)-3,3-dimethyl-4-(2,3-dichlorophenyl)azetidin-2-one]: the IC50 is 0.0081 µM in experiment [1] and 0.029 µM in experiment [2].
Consider `CC1(C)C(=O)N([C@H]2C3CC4CC2C[C@](O)(C4)C3)C1c1cccc2ccccc12` (stereo partly drawn) [Example 47, trans-1-(5-hydroxyadamantan-2-yl)-3,3-dimethyl-4-(naphthalen-1-yl)azetidin-2-one], for which the IC50 is 0.0075 µM in experiment [1] and 0.0056 µM in experiment [2].
As to `COc1ccc(C2N([C@H]3C4CC5CC3C[C@](O)(C5)C4)C(=O)C2(C)C)c2ccccc12` (stereo partly drawn) [Example 48, trans-1-(5-hydroxyadamantan-2-yl)-3,3-dimethyl-4-(4-methoxynaphthalen-1-yl)azetidin-2-one], the IC50 in experiment [1] came to 0.0088 µM; in experiment [2], 0.33 µM.
On to `CC1(C)C(=O)N([C@H]2C3CC4CC2C[C@](F)(C4)C3)C1c1cccc(Cl)c1Cl` (stereo partly drawn) [Example 52, trans-1-(5-fluoroadamantan-2-yl)-3,3-dimethyl-4-(2,3-dichlorophenyl)azetidin-2-one], for which the IC50 in experiment [1] amounted to 0.0046 µM; in experiment [2], 0.027 µM.
For `CC1(C)C(=O)N(C2C3CC4CC(C3)CC2C4)C1c1cccc(Cl)c1` (stereo not drawn) [Example 53, 1-(adamantan-2-yl)-3,3-dimethyl-4-(3-chlorophenyl)azetidin-2-one] the same measures were 0.0039 µM and 0.025 µM.
Regarding `CSc1ccc(C2N(C3C4CC5CC(C4)CC3C5)C(=O)C2(C)C)cc1` (stereo not drawn) [Example 55, 1-(adamantan-2-yl)-3,3-dimethyl-4-[4-(methylthio)phenyl]azetidin-2-one], the IC50 in experiment [1] worked out at 0.0039 µM; in experiment [2], 0.87 µM.
`CC1(C)C(=O)N(C2C3CC4CC(C3)CC2C4)C1c1cccc2c1OCC=CC2` (stereo not drawn) [Example 67, 1-(adamantan-2-yl)-4-(2,5-dihydrobenzo[b]oxepin-9-yl)-3,3-dimethylazetidin-2-one]: the IC50 came to 0.065 µM in experiment [1] and 0.029 µM in experiment [2].

The term IC50 denotes the concentration needed to halve the response being measured.
